Among the data in PubChem BioAssay AID1259411 (Chemical Carcinogenesis Research Information System (CCRIS), 2018) are carcinogen call values, retold here.

The series deals with rodent carcinogenicity bioassays, tumor incidence. Briefly: CCRIS carcinogenicity studies. In short, it runs like this:
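Archive of carcinogenicity, mutagenicity, tumor promotion and tumor inhibition results drawn from journals, NCI reports and other sources, expert-reviewed; covers 1985-2011 and is no longer updated.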

The structures appear in SMILES notation. Activity calls are given as the source filed them. How the calls were made is not given here.

For `F`, the carcinogen call runs as follows: (Species: MOUSE, Strain/Sex: B6C3F1/FEMALE, Route: ORAL, Dose: 0, 25, 100, 175 PPM IN DRINKING WATER FOR 103 WK (STUDY DURATION: 103 WK), Dose: 0, 25, 100, 175 PPM IN DRINKING WATER FOR 103 WK (STUDY DURATION: 103 WK)) “inactive; negative”; (Species: MOUSE, Strain/Sex: B6C3F1/MALE, Route: ORAL, Dose: 0, 25, 100, 175 PPM IN DRINKING WATER FOR 103 WK (STUDY DURATION: 103 WK), Dose: 0, 25, 100, 175 PPM IN DRINKING WATER FOR 103 WK (STUDY DURATION: 103 WK)) “inactive; negative”; (Species: MOUSE, Strain/Sex: F344/MALE, Route: ORAL, Dose: 0, 25, 100, 175 PPM IN DRINKING WATER FOR 103 WK (STUDY DURATION: 103 WK), Dose: 0, 25, 100, 175 PPM IN DRINKING WATER FOR 103 WK (STUDY DURATION: 103 WK), Tumor Site: Type of Lesion: BONE: OSTEOSARCOMA) “equivocal”; (Species: RAT, Strain/Sex: F344/FEMALE, Route: ORAL, Dose: 0, 25, 100, 175 PPM IN DRINKING WATER FOR 103 WK (STUDY DURATION: 103 WK), Dose: 0, 25, 100, 175 PPM IN DRINKING WATER FOR 103 WK (STUDY DURATION: 103 WK)) “inactive; negative”; (Species: RAT, Strain/Sex: SPRAGUE-DAWLEY/FEMALE, Route: ORAL, Dose: 0, 4, 10, 25 MG/KG/D ADDED TO LOW-FLUORIDE DIET FOR DURATION OF STUDY (STUDY DURATION: 99 WK), Dose: 0, 4, 10, 25 MG/KG/D ADDED TO LOW-FLUORIDE DIET FOR DURATION OF STUDY (STUDY DURATION: 99 WK)) “inactive; negative”; (Species: RAT, Strain/Sex: SPRAGUE-DAWLEY/MALE, Route: ORAL, Dose: 0, 4, 10, 25 MG/KG/D ADDED TO LOW-FLUORIDE DIET FOR DURATION OF STUDY (STUDY DURATION: 95 WK), Dose: 0, 4, 10, 25 MG/KG/D ADDED TO LOW-FLUORIDE DIET FOR DURATION OF STUDY (STUDY DURATION: 95 WK)) “inactive; negative”.

For the compound `Cc1c[nH]c(=O)[nH]c1=O`, the carcinogen call (Species: RAT, Strain/Sex: F344/MALE, Route: ORAL, Dose: 0, 1, 3% IN DIET FOR 36 WK (STUDY DURATION: 40 WK), Dose: 0, 1, 3% IN DIET FOR 36 WK (STUDY DURATION: 40 WK), Tumor Site: Type of Lesion: BLADDER: PAPILLOMA, CARCINOMA) was “active; positive”.

As to `CNc1ccc(N(CCO)CCO)cc1[N+](=O)[O-]`, the carcinogen call by setting is: (Species: MOUSE, Strain/Sex: B6C3F1/FEMALE, Route: ORAL, Dose: 0, 3000, 6000 PPM IN DIET FOR 103 WK FOR 103 WK (STUDY DURATION: 105 WK), Dose: 0, 3000, 6000 PPM IN DIET FOR 103 WK FOR 103 WK (STUDY DURATION: 105 WK), Tumor Site: Type of Lesion: LIVER: HEPATOCELLULAR CARCINOMA, HEPATOCELLULAR ADENOMA OR CARCINOMA) “active; positive”; (Species: MOUSE, Strain/Sex: B6C3F1/MALE, Route: ORAL, Dose: 0, 1500, 3000 PPM IN DIET FOR 103 WK FOR 103 WK (STUDY DURATION: 105 WK), Dose: 0, 1500, 3000 PPM IN DIET FOR 103 WK FOR 103 WK (STUDY DURATION: 105 WK), Tumor Site: Type of Lesion: LIVER: HEPATOCELLULAR ADENOMA, HEPATOCELLULAR CARCINOMA, THYROID GLAND: FOLLICULAR CELL ADENOMA) “active; positive”; (Species: RAT, Strain/Sex: F344/FEMALE, Route: ORAL, Dose: 0, 1500, 3000 PPM IN DIET FOR 103 WK FOR 103 WK (STUDY DURATION: 105 WK), Dose: 0, 1500, 3000 PPM IN DIET FOR 103 WK FOR 103 WK (STUDY DURATION: 105 WK), Tumor Site: Type of Lesion: LUNG: ALVEOLAR/BRONCHIOLAR ADENOMA OR CARCINOMA, UTERUS: ENDOMETRIAL STROMAL POLYP) “active; positive”; (Species: RAT, Strain/Sex: F344/MALE, Route: ORAL, Dose: 0, 1500, 3000 PPM IN DIET FOR 103 WK (STUDY DURATION: 105 WK), Dose: 0, 1500, 3000 PPM IN DIET FOR 103 WK (STUDY DURATION: 105 WK), Tumor Site: Type of Lesion: LIVER: HEPATOCELLULAR NEOPLASTIC NODULE OR CARCINOMA) “equivocal”.

In the case of `ClC1=C(Cl)C(Cl)(Cl)C(Cl)=C1Cl`, the carcinogen call is “inactive; negative” (Species: MOUSE, Strain/Sex: B6C3F1/FEMALE, Route: INHALATION, Dose: 0, 0.01, 0.05, 0.2 PPM IN AIR 6 HR/D 5 D/WK FOR 104 WK (STUDY DURATION: 104 WK), Dose: 0, 0.01, 0.05, 0.2 PPM IN AIR 6 HR/D 5 D/WK FOR 104 WK (STUDY DURATION: 104 WK)); “inactive; negative” (Species: MOUSE, Strain/Sex: B6C3F1/MALE, Route: INHALATION, Dose: 0, 0.01, 0.05, 0.2 PPM IN AIR 6 HR/D 5 D/WK FOR 104 WK (STUDY DURATION: 104 WK), Dose: 0, 0.01, 0.05, 0.2 PPM IN AIR 6 HR/D 5 D/WK FOR 104 WK (STUDY DURATION: 104 WK)); “inactive; negative” (Species: RAT, Strain/Sex: F344/FEMALE, Route: INHALATION, Dose: 0, 0.01, 0.05, 0.2 PPM IN AIR 6 HR/D 5 D/WK FOR 104 WK (STUDY DURATION: 104 WK), Dose: 0, 0.01, 0.05, 0.2 PPM IN AIR 6 HR/D 5 D/WK FOR 104 WK (STUDY DURATION: 104 WK)); “inactive; negative” (Species: RAT, Strain/Sex: F344/MALE, Route: INHALATION, Dose: 0, 0.01, 0.05, 0.2 PPM IN AIR 6 HR/D 5 D/WK FOR 104 WK (STUDY DURATION: 104 WK), Dose: 0, 0.01, 0.05, 0.2 PPM IN AIR 6 HR/D 5 D/WK FOR 104 WK (STUDY DURATION: 104 WK)).

For the compound `CS(=O)(=O)OCCCCOS(C)(=O)=O`, the carcinogen call (Species: MOUSE, Route: INTRAVENOUS, Tumor Site: Type of Lesion: OVARIES, THYMUS GLAND) was “active; positive”.

For the compound `CC(CNN)c1ccccc1` (stereo not drawn), the carcinogen call by setting is: (Species: MOUSE, Strain/Sex: SWISS/FEMALE, Route: ORAL, Dose: 0, 156, 312 PPM IN DRINKING WATER DAILY FOR LIFE (STUDY DURATION: 120-140 WK), Dose: 0, 156, 312 PPM IN DRINKING WATER DAILY FOR LIFE (STUDY DURATION: 120-140 WK)) “inactive; negative”; (Species: MOUSE, Strain/Sex: SWISS/MALE, Route: ORAL, Dose: 0, 156, 312 PPM IN DRINKING WATER DAILY FOR LIFE (STUDY DURATION: 120-140 WK), Dose: 0, 156, 312 PPM IN DRINKING WATER DAILY FOR LIFE (STUDY DURATION: 120-140 WK)) “inactive; negative”.
